Measurements from patent publication US11084814B2, “Pyrido[3, 4-d]pyrimidine derivative and pharmaceutically acceptable salt thereof” (Teijin Pharma Limited, priority 2016, dated 2021).

Experiments:
[1] = molecular target: T1, CDK4/cyclin D3 (Homo sapiens, UniProt P11802); assay: Human CDK4/cyclin D3 inhibitory activity (QS S Assist CDK4/Cyclin D3_FP Kit, IMAP fluorescent polarization); format: biochemical; conditions: read-out: CDK4 Activity symbol
T1 construct: purchased Carna Biosciences, Inc. QS S Assist CDK4/Cyclin D3_FP Kit
T1 sequence (P11802 whole entry): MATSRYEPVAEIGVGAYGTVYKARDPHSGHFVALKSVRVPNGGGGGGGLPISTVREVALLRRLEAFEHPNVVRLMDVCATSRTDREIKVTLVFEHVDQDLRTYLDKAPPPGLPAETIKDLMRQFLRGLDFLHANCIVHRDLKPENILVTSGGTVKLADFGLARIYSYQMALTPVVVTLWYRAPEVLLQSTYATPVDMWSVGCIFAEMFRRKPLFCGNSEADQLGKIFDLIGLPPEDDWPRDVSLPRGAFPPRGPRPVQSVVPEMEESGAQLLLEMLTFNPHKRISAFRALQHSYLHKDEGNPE
T1 sequence (P30281 whole entry partner): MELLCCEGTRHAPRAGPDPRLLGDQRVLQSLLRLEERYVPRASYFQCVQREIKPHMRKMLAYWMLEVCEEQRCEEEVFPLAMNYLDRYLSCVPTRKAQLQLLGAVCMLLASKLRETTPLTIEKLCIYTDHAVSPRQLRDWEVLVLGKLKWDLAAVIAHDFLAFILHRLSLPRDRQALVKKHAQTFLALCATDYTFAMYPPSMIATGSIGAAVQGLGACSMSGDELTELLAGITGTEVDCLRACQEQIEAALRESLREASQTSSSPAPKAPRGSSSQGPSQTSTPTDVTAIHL
Experimental: Human CDK4/Cyclin D3 Inhibitory Activity
(§1) Each compound was analyzed for CDK4/cyclin D3 inhibitory activity with an assay kit (QS S Assist CDK4/Cyclin D3_FP Kit, available from Carna Biosciences, Inc.). This assay kit determines kinase activity on the basis of the IMAP technology by Molecular Devices. Specifically, the kinase activity is determined through quantification of a variation in fluorescent polarization caused by binding of a kinase-phosphorylated fluorescent substance to an IMAP-binding reagent.
Each solution was prepared with the 10× assay buffer attached to the kit or a separately prepared assay buffer having the same composition as the assay buffer attached to the kit. An assay buffer was prepared by 10-fold dilution of the 10× assay buffer with distilled water. The assay buffer contains 20 mM HEPES (pH 7.4), 0.01% Tween20, and 2 mM dithiothreitol. A test compound solution was prepared by dilution of the test compound with dimethyl sulfoxide (DMSO) to a concentration 100 times higher than the final concentration and then 25-fold dilution with the assay buffer to a concentration four times higher than the final concentration. An ATP/substrate/Metal solution was prepared by five-fold dilution of the 5×ATP/substrate/Metal solution attached to the kit with the assay buffer. An enzyme solution was prepared by dilution of the CDK4/cyclin D3 attached to the kit with the assay buffer to a concentration twice higher than the final concentration (final concentration of CDK4/cyclin D3: 12.5 to 25 ng/well). A detection reagent was prepared by five-fold dilution of each of 5×IMAP-binding buffer A and 5×IMAP-binding buffer B with distilled water, mixing of IMAP-binding buffer A with IMAP-binding buffer B at a ratio of 85:15, and 400-fold dilution of the IMAP-binding reagent with the mixed buffer.
(§2) The test compound solution (5 μL/well) and the ATP/substrate/Metal solution (5 μL/well) were added to a 384-well plate, and the enzyme solution or the assay buffer (10 μL/well) was added to the plate (total amount of the reaction mixture: 20 μL/well) for initiation of enzymatic reaction. […] The reaction was performed at room temperature for 45 minutes, and the detection reagent (60 μL/well) was then added to the plate, followed by further reaction for 30 minutes at room temperature under light shielding conditions. Subsequently, fluorescent polarization was determined with a microplate reader at an excitation wavelength of 485 nm and an emission wavelength of 535 nm.
(§3) The percent inhibition of enzyme activity was calculated for each test compound (note: enzyme activity=100% in the case of addition of the enzyme solution and addition of DMSO instead of the test compound solution, whereas enzyme activity […] in the case of addition of the assay buffer instead of the enzyme solution, and addition of DMSO instead of the test compound solution). The percent inhibition of enzyme activity was fitted to a dose-response curve, to determine a 50% inhibitory concentration against CDK4/cyclin D3.
In each table, “+++” corresponds to IC50<10 nM. “++” 10 nM […] IC50<100 nM, and “+” 100 nM≤IC50.

[2] = molecular target: T2, CDK2/cyclin A2 (Homo sapiens, UniProt P24941); assay: Human CDK2/cyclin A2 inhibitory activity (QS S Assist CDK2/Cyclin A2_FP Kit, IMAP fluorescent polarization); format: biochemical; conditions: read-out: CDK2 Activity symbol
T2 construct: purchased Carna Biosciences, Inc. QS S Assist CDK2/Cyclin A2_FP Kit
Experimental: Human CDK2/Cyclin A2 Inhibitory Activity
as §1, with “CDK2/cyclin A2” for “CDK4/cyclin D3”, “CDK2/Cyclin A2_FP” for “CDK4/Cyclin D3_FP”
An assay buffer was prepared by 10-fold dilution of the 10× assay buffer attached to the kit with distilled water, and each solution was prepared with the assay buffer. The assay buffer contained 20 mM HEPES (pH 7.4), 0.01% Tween 20, and 2 mM dithiothreitol. A test compound solution was prepared by dilution of the test compound with dimethyl sulfoxide (DMSO) to a concentration 100 times higher than the final concentration and then 25-fold dilution with the assay buffer to a concentration four times higher than the final concentration. An ATP/substrate/Metal solution was prepared by five-fold dilution of the 5×ATP/substrate/Metal solution attached to the kit with the assay buffer. An enzyme solution was prepared by dilution of the CDK2/cyclin A2 attached to the kit with the assay buffer to a concentration twice higher than the final concentration (final concentration of CDK2/cyclin A2: 2.5 ng/well). A detection reagent was prepared by five-fold dilution of 5×IMAP-binding buffer A with distilled water and 400-fold dilution of the IMAP-binding reagent with the diluted buffer.
as §2, with “60” for “45”
as §3, with “enzyme solution” for “enzyme solution,”, “against CDK2/cyclin A2.” for “against CDK4/cyclin D3.”
In each table, “+++” corresponds to IC50<10 nM, “++” 10 nM≤IC50<100 nM, and “+” 100 nM≤IC50.

Row | Structure (SMILES) | IC50 [1] [nM] | IC50 [2] [nM]
1 | Cc1nc(Nc2ncc3cc([C@@H](C)O)nc(N4CCCC4)c3n2)ccc1N1CCNCC1 [Compound 86] | < 10 | ≥ 100
2 | Cc1nc(Nc2ncc3cc([C@@H](C)O)nc(N4CCCCC4)c3n2)ccc1N1CCNCC1 [Compound 87] | < 10 | ≥ 100
3 | Cc1nc(Nc2ncc3cc([C@@H](C)O)nc(N4CCCCC4)c3n2)ccc1N1CCN(CCO)CC1 [Compound 88] | < 10 | ≥ 100
4 | C[C@@H](O)c1cc2cnc(Nc3ccc(N4CCNCCC4=O)cn3)nc2c(N2CCCCC2)n1 [Compound 89] | < 10 | ≥ 100
5 | C[C@@H](O)c1cc2cnc(Nc3ccc(N4CCNCC4=O)cn3)nc2c(N2CCC(F)CC2)n1 [Compound 90] | < 10 | ≥ 100
6 | C[C@@H](O)c1cc2cnc(Nc3ccc(N4CCNCC4)nn3)nc2c(N2CCCCC2)n1 [Compound 91] | < 10 | ≥ 100
7 | OCCc1cc2cnc(Nc3ccc(CN4CCNCC4)cn3)nc2c(N2CCCCC2)n1 [Compound 92] | < 10 | ≥ 100
8 | O=C1CNCCN1c1ccc(Nc2ncc3cc(CCO)nc(N4CCCCC4)c3n2)nc1 [Compound 93] | < 10 | ≥ 100
9 | OCCc1cc2cnc(Nc3ccc(N4CCNCC4)nn3)nc2c(N2CCCCC2)n1 [Compound 94] | < 10 | ≥ 100
10 | OCCc1cc2cnc(Nc3ccc4c(n3)CCNC4)nc2c(N2CCCCC2)n1 [Compound 95] | 10 to 100 | ≥ 100
11 | OCCN1CCN(Cc2ccc(Nc3ncc4cc(CO)nc(N5CCCCC5)c4n3)nc2)CC1 [Compound 96] | < 10 | ≥ 100
12 | O=C1CNCCN1c1ccc(Nc2ncc3cc(CO)nc(N4CCCCC4)c3n2)nc1 [Compound 97] | < 10 | ≥ 100
13 | C[C@@H](O)c1cc2cnc(Nc3ccc(CN4CCN(CCO)CC4)cn3)nc2c(N2CCC[C@@H]2C)n1 [Compound 98] | 10 to 100 | ≥ 100
14 | C[C@H]1CCN(c2nc([C@@H](C)O)cc3cnc(Nc4ccc(CN5CCN(CCO)CC5)cn4)nc23)C1 [Compound 99] | < 10 | ≥ 100
15 | C[C@@H]1CCN(c2nc([C@@H](C)O)cc3cnc(Nc4ccc(CN5CCN(CCO)CC5)cn4)nc23)C1 [Compound 100] | < 10 | ≥ 100
16 | CC1CCC(C)N1c1nc([C@@H](C)O)cc2cnc(Nc3ccc(CN4CCN(CCO)CC4)cn3)nc12 (some centres unmarked) [Compound 101] | < 10 | ≥ 100
17 | C[C@@H](O)c1cc2cnc(Nc3ccc(CN4CCN(CCO)CC4)cn3)nc2c(N2CCC(C)(C)C2)n1 [Compound 102] | < 10 | ≥ 100
18 | C[C@@H](O)c1cc2cnc(Nc3ccc(CN4CCN(CCO)CC4)cn3)nc2c(N2C3CCC2CC3)n1 [Compound 103] | < 10 | ≥ 100
19 | C[C@@H](O)c1cc2cnc(Nc3ccc(CN4CCN(CCO)CC4)cn3)nc2c(N2CC3CC3C2)n1 (some centres unmarked) [Compound 104] | < 10 | ≥ 100

Row | Structure (SMILES) | IC50 [1] [nM] | IC50 [2] [nM]
20 | CC(O)c1cc2cnc(Nc3ccc(CN4CCN(CCO)CC4)cn3)nc2c(N2C3CCCC2CC3)n1 (centres unmarked) [Compound 105] | < 10 | ≥ 100
21 | C[C@@H](O)c1cc2cnc(Nc3ccc(CN4CCN(CCO)CC4)cn3)nc2c(N2CCC(O)CC2)n1 [Compound 106] | < 10 | ≥ 100
22 | OCc1cc2cnc(Nc3ccc(N4CCNCC4)nn3)nc2c(N2CCCCC2)n1 [Compound 107] | < 10 | ≥ 100
23 | OCc1cc2cnc(Nc3ccc(CN4CCNCC4)cn3)nc2c(N2CCCCC2)n1 [Compound 108] | < 10 | ≥ 100
24 | OCCc1cc2cnc(Nc3ccc4c(n3)CCN(CCO)C4)nc2c(N2CCCCC2)n1 [Compound 109] | < 10 | ≥ 100
25 | CN(C)CCN1CCc2nc(Nc3ncc4cc(CCO)nc(N5CCCCC5)c4n3)ccc2C1 [Compound 110] | < 10 | ≥ 100
26 | C[C@@H](O)c1cc2cnc(Nc3ccc4c(n3)CCN(CCO)C4)nc2c(N2CCCCC2)n1 [Compound 111] | < 10 | ≥ 100
27 | C[C@@H](O)c1cc2cnc(Nc3ccc4c(n3)CCN(CCO)C4)nc2c(N2CCC(F)CC2)n1 [Compound 112] | < 10 | ≥ 100
28 | CC(O)c1cc2cnc(Nc3ccc(CN4CCN(CCO)CC4)cn3)nc2c(N2CC(C)C(C)C2)n1 (centres unmarked) [Compound 113] | < 10 | ≥ 100
29 | C[C@@H](O)c1cc2cnc(Nc3ccc(N4CCN(CCS(C)(=O)=O)CC4)nn3)nc2c(N2CCCCC2)n1 [Compound 114, (R)-1-(2-((6-(4-(2-(methylsulfonyl)ethyl)piperazin-1-yl)pyridazin-3-yl)amino)-8-(piperidin-1-yl)pyrido[3,4-d]pyrimidin-6-yl)ethanol] | < 10 | ≥ 100
30 | C[C@@H](O)c1cc2cnc(Nc3ccc(CN4CCN(C)CC4)cn3)nc2c(N2CCC(F)CC2)n1 [Compound 115] | < 10 | ≥ 100
31 | C[C@@H](O)c1cc2cnc(Nc3ccc(CN4CCN(C)CC4)cn3)nc2c(N2CC[C@@H](F)C2)n1 [Compound 116] | < 10 | ≥ 100
32 | C[C@@H](O)c1cc2cnc(Nc3ccc(CN4CCN(C)CC4)cn3)nc2c(N2CC[C@H](F)C2)n1 [Compound 117] | < 10 | ≥ 100
33 | CO[C@H](C)c1cc2cnc(Nc3ccc(N4CCNCC4)nn3)nc2c(N2CCCCC2)n1 [Compound 118] | < 10 | ≥ 100
34 | CO[C@H](C)c1cc2cnc(Nc3ccc(CN4CCNCC4)cn3)nc2c(N2CCCCC2)n1 [Compound 119] | < 10 | ≥ 100
35 | C[C@@H](O)c1cc2cnc(Nc3ccc(N4CCN(C)CCC4=O)cn3)nc2c(N2CCCC2)n1 [Compound 120] | < 10 | ≥ 100
36 | C[C@@H](O)c1cc2cnc(Nc3ccc(N4CCN(C)CCC4=O)cn3)nc2c(N2CCCCC2)n1 [Compound 121] | < 10 | ≥ 100
37 | CCN1CCN(Cc2ccc(Nc3ncc4cc([C@@H](C)O)nc(N5CCCCC5)c4n3)nc2)CC1 [Compound 122] | < 10 | ≥ 100
